In patent US20260327240A1, “1,4-CINEOLE DERIVATIVE AND INTERMEDIATE THEREOF, HERBICIDE CONTAINING SAID DERIVATIVE AS ACTIVE INGREDIENT, METHOD FOR USING HERBICIDE, AND METHOD FOR PREPARING AGROCHEMICAL COMPOSITION” (HOKKO CHEMICAL INDUSTRY CO., LTD., priority 2023, published 2026):

What was measured:
Type in all cases: in vivo
Digitaria ciliaris [1] = assay: Test Example 4: herbicidal effect test by stem and leaf treatment in upland field; conditions: Digitaria ciliaris, 7 days after sowing, 120 g per 10 ares, 14 days after application, read-out: weed inhibition rate
How it was run: (§1)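 Weeds sown in alluvial loam and sprayed 7 days after sowing with a water-diluted emulsifiable concentrate at 100 L per 10 ares, equivalent to 120 g active ingredient per 10 ares.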

Echinochloa crus-galli [2] = assay: as above; conditions: Echinochloa crus-galli, 7 days after sowing, 120 g per 10 ares, 14 days after application, read-out: weed inhibition rate
How it was run: as §1

Amaranthus viridis = assay: Test Example 3: herbicidal effect test by soil application in upland field; conditions: Amaranthus viridis, 1 day after sowing, 120 g per 10 ares, 14 days after application, read-out: weed inhibition rate
How it was run: (§2)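 Twenty seeds per weed species were mixed into the top 1 cm of alluvial loam in pots. One day after sowing, an emulsifiable concentrate diluted in water was sprayed on the soil surface at 120 g active ingredient per 10 ares.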

Digitaria ciliaris [3] = assay: as above; conditions: Digitaria ciliaris, 1 day after sowing, 120 g per 10 ares, 14 days after application, read-out: weed inhibition rate
How it was run: as §2

Echinochloa crus-galli [4] = assay: as above; conditions: Echinochloa crus-galli, 1 day after sowing, 120 g per 10 ares, 14 days after application, read-out: weed inhibition rate
How it was run: as §2

Echinochloa crus-galli [5] = assay: Test Example 8: herbicidal effect test by stem and leaf treatment in upland field; conditions: Echinochloa crus-galli, 7 days after sowing, 7.5 g per 10 ares, 14 days after application, read-out: weed inhibition rate
Method: Herbicidal Effect Test by Stem and Leaf Treatment in Upland Field
(§3) Pots with an area of 36 cm^2 were filled with upland soil (alluvial loam), twenty seeds each of weeds of Digitaria ciliaris, Echinochloa crus-galli, Chenopodium album, and Amaranthus viridis were uniformly mixed with the top 1 cm layer of soil and the surface was lightly pressed down. Seven days after sowing, an emulsifiable concentrate prepared according to Formulation Example 5 using the compound shown below was diluted with water, and the diluted solution was sprayed onto the soil surface at a rate of 100 liters per 10 ares. The amount of the active ingredient to be applied was equivalent to 7.5 g per 10 ares. Fourteen days after chemical application, the herbicidal effect was evaluated according to the same criteria as in Test Example 1.

Digitaria ciliaris [6] = assay: Test Example 7: herbicidal effect test by soil application in upland field; conditions: Digitaria ciliaris, 1 day after sowing, 7.5 g per 10 ares, 14 days after application, read-out: weed inhibition rate
Method: (§4) Herbicidal Effect Test by Soil Application in Upland Field
as §3, with “One day” for “Seven days”

Echinochloa crus-galli [7] = assay: as above; conditions: Echinochloa crus-galli, 1 day after sowing, 7.5 g per 10 ares, 14 days after application, read-out: weed inhibition rate
Method: as §4
as §3, with “One day” for “Seven days”

[8] = tested on: Echinochloa crus-galli var. formosensis; assay: Test Example 6: herbicidal effect test by application during growth period of paddy rice; conditions: Echinochloa crus-galli, 7 days after sowing, 7.5 g per 10 ares, 14 days after application, read-out: weed inhibition rate
Method: Herbicidal Effect Test by Application During Growth Period of Paddy Rice
(§5) Wagner pots with an area of […] were filled with paddy soil, followed by addition of water and incorporation of chemical fertilizer (N:P:K=16:16:16), after which puddling was performed. After that, seeds of Echinochloa crus-galli var. formosensis, broad-leaved weeds (Lindemia pyxidaria, and Monochoria vaginalis), and Scirpus juncoides were sown at a depth of 0 cm to 1 cm, 30 seeds each. Immediately after sowing, the pots were flooded and a water depth of approximately 3 cm was maintained. Subsequent management was conducted in a glass greenhouse. Seven days after sowing, an emulsifiable concentrate prepared according to Formulation Example 5 using the compound shown below was diluted with water, and a specified amount of the diluted solution was applied by dropper. The amount of the active ingredient to be applied was equivalent to 7.5 g per 10 ares. The test was conducted in duplicate for each chemical concentration group, and the herbicidal effect was evaluated 14 days after chemical application using the same criteria as in Test Example 1.

[9] = tested on: Echinochloa crus-galli var. formosensis; assay: Test Example 5: herbicidal effect test by soil application in paddy rice; conditions: Echinochloa crus-galli, 336 h, 7.5 g per 10 ares, 14 days after application, read-out: weed inhibition rate
Method: Herbicidal Effect Test by Soil Application in Paddy Rice
as §5, with “Immediately thereafter,” for “Seven days after sowing,”, “ares.” for “ares. The test was conducted in duplicate for each chemical concentration group, and the herbicidal effect was evaluated 14 days after chemical application using the same criteria as in Test Example 1.”
The present test was conducted in duplicate for each chemical concentration group, and the herbicidal effect was evaluated 14 days after chemical application using the same criteria as in Test Example 1.

CCOC(C)O[C@H]1C[C@]2(C)O[C@@]1(C(C)C)C[C@H]2OCc1ccccc1F (stereo partly drawn) [1-213, (1R,2S,4S,5R)-2-(1-ethoxyethoxy)-5-((2-fluorobenzyl)oxy)-1-isopropyl-4-methyl-7-oxabicyclo[2.2.1]heptane]
≥ 80%: inhibition at 1200 g/ha (Digitaria ciliaris [1]) | inhibition at 1200 g/ha (Echinochloa crus-galli [2]) | inhibition at 1200 g/ha (Amaranthus viridis) | inhibition at 1200 g/ha (Digitaria ciliaris [3]) | inhibition at 1200 g/ha (Echinochloa crus-galli [4]) | inhibition at 75 g/ha (Echinochloa crus-galli [5]) | inhibition at 75 g/ha (Digitaria ciliaris [6]) | inhibition at 75 g/ha (Echinochloa crus-galli [7]) | inhibition at 75 g/ha [8] | inhibition at 75 g/ha [9]
